{"source": "patent US20070122442A1", "about": "“Triple-Action Pest Control Formulation and Method” (priority 2004, published 2007)", "origin": "cited, not measured here", "system": "insects", "settings": "variety of insects"}
{"smiles": "OB(O)O", "note": "[boric acid]", "values": [{"measurement": "retention at which boric acid is known to be effective", "result": "below 0.5%"}]}
